Experimental data from patent US6432655B1, “Method of obtaining compositions” (Synaptic Pharmaceutical Corporation, priority 1992, dated 2002).
Like-named read-outs stand apart in the source and are kept apart here.

Legend:
[1] = target: T1, human 5-HT4B receptor (clone hp78a) (Homo sapiens, UniProt P34969); assay: [3H]5-HT radioligand binding to membranes of Cos-7 cells transiently expressing clone hp78a
T1 construct: The entire coding region of the human 5-HT4B receptor (1338 bp); expressed in transfected cells; host or cells: Cos-7 (monkey kidney), transient, plasmid hp78a/EXJ (pcEXV-5HT4B)

human 5-HT4B receptor [2] = target: T2, human 5-HT4B receptor (Homo sapiens, UniProt P34969); assay: cell-based; format: cell-based; conditions: for Emax: L-M(TK-), read-out: Emax* (% 5-HT RESPONSE)
T2 construct: The entire coding region of the human 5-HT4B receptor (1338 bp); expressed in transfected cells

human 5-HT4B receptor [3] = target: T2, human 5-HT4B receptor; assay: cAMP formation in intact, transiently transfected Cos-7 cells; format: cell-based; conditions: for activity at the clone hp78a receptor: compounds used to define the classical 5-HT4 receptor
human 5-HT1E receptor = human 5-HT1E receptor (Homo sapiens, UniProt P28566); conditions: cited from earlier work
human 5-HT1F receptor = target: T3, human 5-HT1F receptor (Homo sapiens, UniProt P30939); conditions: cited from earlier work
T3 sequence (P30939 1-366): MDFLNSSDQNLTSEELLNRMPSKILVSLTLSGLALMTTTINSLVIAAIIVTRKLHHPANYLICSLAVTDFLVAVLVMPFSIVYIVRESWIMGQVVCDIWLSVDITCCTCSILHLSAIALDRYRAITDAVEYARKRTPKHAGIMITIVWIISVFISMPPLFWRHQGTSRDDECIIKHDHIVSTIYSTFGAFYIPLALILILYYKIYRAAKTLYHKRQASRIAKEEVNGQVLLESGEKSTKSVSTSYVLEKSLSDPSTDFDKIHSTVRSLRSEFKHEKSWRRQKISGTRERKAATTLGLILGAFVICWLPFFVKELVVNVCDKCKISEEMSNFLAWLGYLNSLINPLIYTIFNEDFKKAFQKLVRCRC

[4] = test system: 5-HT receptor present in glial membranes; conditions: Fillion et al., 1980, property shared with hp78a, cited from earlier work
[5] = test system: untransfected or mock-transfected Cos-7 cells; assay: cAMP in untransfected or mock-transfected Cos-7 cells; format: cell-based, monkey; conditions: 1 μM
Procedure: Both the 5-HT-mediated inhibition and stimulation of cAMP levels were evaluated in these three intact cell preparations. Intracellular cAMP formation was measured by radioimmunoassay (cAMP Radioimmunoassay kit, Advanced Magnetics, Cambridge, Mass.) using methodology outlined by Zgombick et al. (1991). Radioactivity was quantitatied using a Packard COBRA Auto Gamma Counter (equipped with data reduction software).

5-HT4B receptor = target: T4, 5-HT4B receptor (Rattus norvegicus, UniProt P32305); assay: [3H]5-CT receptor autoradiography on rat brain sections; format: binding; conditions: masks: 100 nM PAPP and 160 nM (−)pindolol added together
T4 construct: from tissue; host or cells: rat brain cryostat sections (20 µm)

[6] = Ki (apparent dissociation constants for clone hp78a)
[7] = 30 nM competitor, 5 nM [3H]5-HT, 30 min at 37° C.
[8] = read-out: Ki (apparent dissociation constants for clone hp78a)
[9] = 100 nM competitor, 5 nM [3H]5-HT, 30 min at 37° C.

T1 sequence (P34969 1-445 isoform P34969-2): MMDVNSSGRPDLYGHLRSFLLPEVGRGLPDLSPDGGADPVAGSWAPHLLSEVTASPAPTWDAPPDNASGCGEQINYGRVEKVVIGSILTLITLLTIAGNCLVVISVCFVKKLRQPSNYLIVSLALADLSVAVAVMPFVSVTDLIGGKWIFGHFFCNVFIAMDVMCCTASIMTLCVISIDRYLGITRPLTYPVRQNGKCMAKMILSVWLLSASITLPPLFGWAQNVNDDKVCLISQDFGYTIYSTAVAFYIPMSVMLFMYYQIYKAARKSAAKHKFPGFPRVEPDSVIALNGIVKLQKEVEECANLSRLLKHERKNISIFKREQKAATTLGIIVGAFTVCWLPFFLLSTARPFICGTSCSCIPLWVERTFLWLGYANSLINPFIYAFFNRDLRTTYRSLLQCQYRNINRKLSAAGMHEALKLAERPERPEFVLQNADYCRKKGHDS
T2 sequence (P34969 1-445 isoform P34969-2): as above
T4 sequence (P32305 whole entry): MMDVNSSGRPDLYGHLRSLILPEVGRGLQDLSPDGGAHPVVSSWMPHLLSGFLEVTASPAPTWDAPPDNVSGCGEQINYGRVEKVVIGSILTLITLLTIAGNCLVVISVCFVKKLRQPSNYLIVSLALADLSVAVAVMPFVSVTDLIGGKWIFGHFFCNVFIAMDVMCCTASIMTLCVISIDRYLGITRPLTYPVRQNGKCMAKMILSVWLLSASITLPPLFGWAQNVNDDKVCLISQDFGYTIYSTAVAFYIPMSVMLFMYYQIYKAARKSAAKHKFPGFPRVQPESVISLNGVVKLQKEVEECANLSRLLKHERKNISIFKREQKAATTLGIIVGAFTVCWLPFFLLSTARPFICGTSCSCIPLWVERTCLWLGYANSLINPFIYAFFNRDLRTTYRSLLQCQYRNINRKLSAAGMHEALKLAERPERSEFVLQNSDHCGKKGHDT
Chain of human 5-HT1E receptor (P28566 whole entry): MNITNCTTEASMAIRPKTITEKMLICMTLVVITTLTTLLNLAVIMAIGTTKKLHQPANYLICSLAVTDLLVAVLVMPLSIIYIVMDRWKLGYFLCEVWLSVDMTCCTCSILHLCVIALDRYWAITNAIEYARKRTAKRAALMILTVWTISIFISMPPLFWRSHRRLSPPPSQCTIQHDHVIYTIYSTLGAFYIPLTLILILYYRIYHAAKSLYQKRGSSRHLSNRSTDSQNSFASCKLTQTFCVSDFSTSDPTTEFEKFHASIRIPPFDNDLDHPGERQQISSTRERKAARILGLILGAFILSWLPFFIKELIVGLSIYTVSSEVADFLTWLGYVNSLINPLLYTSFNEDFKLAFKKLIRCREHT

CCN(CC)C(=O)[C@@H]1C=C2c3cccc4[nH]cc(c34)C[C@H]2N(C)C1 [d-LSD]
PERCENT INHIBITION (displacement of specific [3H]5-HT binding) [1]: 77
INTRINSIC ACTIVITY (human 5-HT4B receptor [2]): ANTAGONIST
Emax* (% 5-HT RESPONSE) (human 5-HT4B receptor [2]; normalized to the 5-HT maximal response): 0 % 5-HT RESPONSE

NCCc1c[nH]c2ccc(C(N)=O)cc12 [5-CT, 5-Carboxamidotryptamine]
agonist activity (human 5-HT4B receptor [3]): potent agonists
INTRINSIC ACTIVITY (human 5-HT4B receptor [2]): AGONIST (key: AGONIST indicates that the maximal response to the drug was at least 80% of the maximum response obtained with 5-HT)
functional character (human 5-HT4B receptor [2]): potent agonists
Emax (human 5-HT4B receptor [2]): 110 ± 19%
Ki (human 5-HT1E receptor): > 0.7 µM
Ki (human 5-HT1F receptor): > 0.7 µM

CN1C[C@H](C(=O)N[C@]2(C)O[C@@]3(O)[C@@H]4CCCN4C(=O)[C@H](Cc4ccccc4)N3C2=O)C[C@@H]2c3cccc4[nH]cc(c34)C[C@H]21 [Dihydroergotamine]
Ki [1, 6]: 0.0069 ± 0.0009 µM
INTRINSIC ACTIVITY (human 5-HT4B receptor [2]): ANTAGONIST
Emax (human 5-HT4B receptor [2]): 0%
Kb (human 5-HT4B receptor [2]; dissociation constant of antagonist, KB = [B]/(A′/A) − 1], read-out: KB): 0.02 ± 0.004 µM

COc1cc(CC(C)N)c(OC)cc1I (centres unmarked) [DOI]
PERCENT INHIBITION (displacement of specific [3H]5-HT binding) [1]: 20

NCCc1c[nH]c2ccc(OCc3ccccc3)cc12 [5-Benzyloxytryptamine]
Ki [1, 6]: 0.729 µM

Cc1cc(C(C)(C)C)c(O)c(C)c1CC1=NCCN1 [Oxymetazoline]
PERCENT INHIBITION (displacement of specific [3H]5-HT binding) ([1]; 10 nM competitor, 5 nM [3H]5-HT, 30 min at 37° C.): 6

NCCc1ccc(O)c(O)c1 [Dopamine]
PERCENT INHIBITION (displacement of specific [3H]5-HT binding) [1, 7]: 0

CC[C@@H](CO)NC(=O)[C@@H]1C=C2c3cccc4c3c(cn4C)C[C@H]2N(C)C1 [Methysergide]
Ki [1, 8]: 0.083 ± 0.005 µM
FOLD cAMP STIMULATION (human 5-HT4B receptor [3]): 1.7 ± 0.43
antagonism of the 5-HT response (human 5-HT4B receptor [3]): almost completely
antagonism [4]: Potent antagonism

COc1ccc2[nH]cc(CCN)c2c1 [5-MeOT, 5-Methoxytryptamine]
agonist activity (human 5-HT4B receptor [3]): potent agonists
INTRINSIC ACTIVITY (human 5-HT4B receptor [2]): AGONIST (key: AGONIST indicates that the maximal response to the drug was at least 80% of the maximum response obtained with 5-HT)
functional character (human 5-HT4B receptor [2]): potent agonists
Emax (human 5-HT4B receptor [2]): 100 ± 5%

c1ccc2nc(N3CCNCC3)ccc2c1 [Quipazine]
PERCENT INHIBITION (displacement of specific [3H]5-HT binding) [1, 9]: 3

NC[C@H](O)c1ccc(O)c(O)c1 [Norepinephrine]
PERCENT INHIBITION (displacement of specific [3H]5-HT binding) [1, 7]: 0

CN(C)CCc1c[nH]c2ccc(O)cc12 [Bufotenin]
Ki [1, 6]: 0.026 µM

c1ccc2c(N3CCNCC3)cccc2c1 [1-Naphthylpiperazine]
Ki [1, 8]: 0.083 ± 0.019 µM

CN1[C@@H]2CC[C@H]1C[C@@H](OC(=O)c1c[nH]c3ccccc13)C2 [ICS 203930]
PERCENT INHIBITION (displacement of specific [3H]5-HT binding) ([1]; 1000 nM competitor, 5 nM [3H]5-HT, 30 min at 37° C.): 10
inhibitory effect on the 5-HT response (human 5-HT4B receptor [3]; 100 μM): weak inhibitory effect
% INHIBITION OF 5-HT RESPONSE (human 5-HT4B receptor [3]; 100 μM drug, cAMP response to 1 μM 5-HT): 36 ± 3.0%
FOLD cAMP STIMULATION (human 5-HT4B receptor [3]; 100 μM drug, relative to basal levels): 0
activity at the clone hp78a receptor (human 5-HT4B receptor [3]): either poorly active or inactive

NCCc1c[nH]c2ccc(O)cc12 [5-HT, 5-Hydroxytryptamine]
increase in cAMP release over basal levels (human 5-HT4B receptor [3]): 20 fold
stimulation of basal cAMP release (human 5-HT4B receptor [3]; 1 μM): 7 fold
stimulation of intracellular cAMP accumulation (human 5-HT4B receptor [3]; coincubation of 1 μM FSK and 1 μM 5-HT): 75 fold
INTRINSIC ACTIVITY (human 5-HT4B receptor [2]): AGONIST (AGONIST indicates that the maximal response to the drug was at least 80% of the maximum response obtained with 5-HT)
effect on basal or FSK-stimulated adenylate cyclase activity [5]: no effect
EC50 ([4]; read-out: EC50 value for 5-HT stimulation of cAMP): 0.5 to 1 µM

O=C(CCCN1CCC2(CC1)C(=O)NCN2c1ccccc1)c1ccc(F)cc1 [Spiperone]
Ki ([1]; 5 nM [3H]5-HT, seven concentrations of competitor, 30 min at 37° C., mean ± S.E.M., 2-5 determinations, read-out: Ki (apparent dissociation constants for clone hp78a)): 0.11 ± 0.017 µM

CC(C)NCC(O)COc1cccc2[nH]ccc12 (single isomer, unassigned; (-)) [(−)pindolol]
effect on [3H]5-CT binding (5-HT4B receptor): markedly reduced

COc1cc(N)c(Cl)cc1C(=O)NC1CCN(CCCOc2ccc(F)cc2)CC1OC (centres unmarked) [cisapride]
activity at the clone hp78a receptor (human 5-HT4B receptor [3]): either poorly active or inactive

NCCc1c[nH]cn1 [Histamine]
PERCENT INHIBITION (displacement of specific [3H]5-HT binding) [1, 9]: 10
